Where two headings read alike, the source gives them in different places.
Experiments:
[1] = target: T1, Human soluble guanylate cyclase enzyme (hsGC) (Homo sapiens (Human), UniProt Q02108+Q02153); assay: Purified human sGC enzyme synergy assay in the presence of 1 μM sodium nitroprusside (SNP); assay type: biochemical; details: for sGC Enzyme (fold increase at 10 μM with SNP): 10 μM compound; for sGC Enzyme (fold increase at 30 μM with SNP): 30 μM compound
Protocol: Human soluble guanylate cyclase enzyme (hsGC) obtained from Enzo Inc. (P/N: ALX-201-177) was used to evaluate the activity of test compounds. The assay reactions contained 0.1 M Tris (pH 8.0), 0.5 mg/mL BSA (pH 8.0), 2 mM DTT, 2 mM MgCl2, 300 μM GTP, 1 mM 3-isobutyl-1-methylxanthine (IBMX) and 5 ng human soluble guanylate cyclase enzyme. Test compounds in DMSO were then added (2 μL, 10 or 30 μM final concentration) and incubated (200 μL, 96-well plate format) at 37° C. for 30 minutes. The controls were carried out using 2 μL DMSO. After the 30 minute incubation, the reaction was stopped with the addition of 200 μL of cold methanol. The plate was then centrifuged at 3,200 rpm for 10 minutes at room temperature. Supernatants (200 μL) were collected and transferred to a new 96 well plate for analysis.
An 8 point cGMP (Sigma-Aldrich P/N: G6129) standard curve was prepared in assay buffer ranging from 0.156-20 μM. Samples for the cGMP standard curve were then diluted with an equal volume of methanol resulting in final cGMP concentrations of 0.078-10 μM.
The cGMP standard curve was generated using GraphPad Prism Software.
Calculations: Specific Activity was determined by the amount of cGMP formed (nmoles) per mg of sGC per min. Enzyme “fold-change” was calculated by dividing Specific Activity for test compounds by Specific Activity of DMSO controls.
Enzyme assays were performed as described above, but was done in the presence of 1 μM sodium nitroprusside (SNP).

[2] = target: T1, Human soluble guanylate cyclase enzyme (hsGC); assay: Purified human sGC enzyme activity assay; assay type: biochemical; details: for sGC Enzyme (fold increase at 10 μM without SNP) / sGC Enzyme (specific activity at 10 μM): 10 μM compound; for sGC Enzyme (fold increase at 30 μM without SNP) / sGC Enzyme (specific activity at 30 μM) / sGC Enzyme (fold increase at 30 μM): 30 μM compound; for sGC Enzyme (fold increase at 30 μM): without the addition of SNP
Outline: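 Values are fold-change of sGC specific activity, nmoles cGMP per mg enzyme per min, relative to DMSO controls. Reactions: 5 ng human enzyme, 300 μM GTP, 1 mM IBMX, 2 mM MgCl2/DTT, 0.1 M Tris pH 8.0, compound 10 or 30 μM final, 37° C for 30 minutes, methanol quench. cGMP read against a 0.078-10 μM final standard curve.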

[3] = target: soluble guanylate cyclase (sGC) (Homo sapiens (Human), UniProt Q02108+Q02153); assay: sGC-HEK-cGMP assay run with SNP incubation (HEK WC assay); assay type: cell-based
soluble guanylate cyclase (sGC), sequence (Q02153 whole entry): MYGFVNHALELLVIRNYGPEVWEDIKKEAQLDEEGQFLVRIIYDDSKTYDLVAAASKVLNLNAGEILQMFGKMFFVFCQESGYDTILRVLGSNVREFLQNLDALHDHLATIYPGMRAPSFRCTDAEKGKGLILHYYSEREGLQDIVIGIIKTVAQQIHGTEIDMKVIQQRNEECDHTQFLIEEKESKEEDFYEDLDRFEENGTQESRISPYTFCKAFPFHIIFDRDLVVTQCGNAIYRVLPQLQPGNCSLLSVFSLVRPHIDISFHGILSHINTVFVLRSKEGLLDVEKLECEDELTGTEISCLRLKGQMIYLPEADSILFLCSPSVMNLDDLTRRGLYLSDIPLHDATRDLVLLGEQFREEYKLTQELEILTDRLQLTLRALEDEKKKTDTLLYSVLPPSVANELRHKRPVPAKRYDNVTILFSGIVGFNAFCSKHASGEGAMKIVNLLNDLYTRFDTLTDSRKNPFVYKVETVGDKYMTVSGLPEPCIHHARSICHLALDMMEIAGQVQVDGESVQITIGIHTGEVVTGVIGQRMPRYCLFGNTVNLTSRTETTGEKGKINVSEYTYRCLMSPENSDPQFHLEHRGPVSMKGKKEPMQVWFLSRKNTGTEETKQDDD
soluble guanylate cyclase (sGC), sequence (Q02108 whole entry): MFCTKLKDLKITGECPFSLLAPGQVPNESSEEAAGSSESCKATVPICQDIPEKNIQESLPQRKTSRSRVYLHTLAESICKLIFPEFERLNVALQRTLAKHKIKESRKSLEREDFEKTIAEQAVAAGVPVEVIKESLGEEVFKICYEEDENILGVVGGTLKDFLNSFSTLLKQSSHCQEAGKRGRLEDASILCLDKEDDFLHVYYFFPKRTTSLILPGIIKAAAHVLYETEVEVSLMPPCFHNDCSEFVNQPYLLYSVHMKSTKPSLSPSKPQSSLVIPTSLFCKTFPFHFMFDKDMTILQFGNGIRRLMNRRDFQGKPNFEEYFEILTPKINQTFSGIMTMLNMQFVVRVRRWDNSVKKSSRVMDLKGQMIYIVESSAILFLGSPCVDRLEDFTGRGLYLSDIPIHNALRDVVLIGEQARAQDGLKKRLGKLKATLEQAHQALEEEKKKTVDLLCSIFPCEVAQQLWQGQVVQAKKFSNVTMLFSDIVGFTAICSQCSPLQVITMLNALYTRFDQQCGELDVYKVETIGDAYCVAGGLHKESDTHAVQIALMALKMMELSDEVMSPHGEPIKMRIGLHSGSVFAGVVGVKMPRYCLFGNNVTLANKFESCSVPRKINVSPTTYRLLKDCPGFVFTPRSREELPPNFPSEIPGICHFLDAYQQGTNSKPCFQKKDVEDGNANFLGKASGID
Outline: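 EC50 values derive from concentration-response curves of intracellular cGMP in HEK293 cells, which express sGC endogenously. Compound and sodium nitroprusside were co-incubated 10 min at 37 °C after a 15-min 0.5 mM IBMX step, with 0.1 M HCl lysis and 1% DMSO vehicle.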

[4] = read-out: HEK WC Assay (% Emax at 10 uM/with 10 uM SNP)
[5] = read-out: HEK WC Assay (% Emax at 30 uM/with 10 uM SNP)
[6] = read-out: HEK WC Assay (% Emax at 10 μM/with 10 uM SNP)
[7] = read-out: HEK WC Assay (% Emax at 30 μM/with 10 uM SNP)

T1 sequence (Q02153 whole entry): as the sequence (Q02153 whole entry) above
T1 sequence (Q02108 whole entry): as the sequence (Q02108 whole entry) above

sGC Enzyme (fold increase at 10 μM with SNP) ([1]; with 1 μM SNP)	sGC Enzyme (fold increase at 30 μM with SNP) ([1]; with 1 μM SNP)	sGC Enzyme (fold increase at 10 μM without SNP) [2]	sGC Enzyme (fold increase at 30 μM without SNP) [2]	Emax at 10 µM [3, 4] [%]	Emax at 30 µM [3, 5] [%]	sGC Enzyme (specific activity at 10 μM) [2]	sGC Enzyme (specific activity at 30 μM) [2]	sGC Enzyme (fold increase at 30 μM with SNP) ([1]; with the addition of SNP)	sGC Enzyme (fold increase at 30 μM) [2]	Emax at 10 µM [3, 6] [%]	Emax at 30 µM [3, 7] [%]	SMILES
–	–	–	–	–	–	–	–	C (C = 5 to <10 fold increase)	B (B = 2 to <5 fold increase)	40 to 60	20 to 40	Nc1nc(-c2cc(-c3ccon3)n(Cc3ccccc3F)n2)ncc1C(=O)O [Compound I-132]
–	–	–	–	–	–	–	–	C (C = 5 to <10 fold increase)	B (B = 2 to <5 fold increase)	20 to 40	20 to 40	Cn1c(=O)[nH]c2nc(-c3cc(-c4nccs4)n(Cc4ccccc4F)n3)nc(N)c21 [Compound I-96]
–	–	–	–	–	–	–	–	C (C = 5 to <10 fold increase)	B (B = 2 to <5 fold increase)	0 to 10	10 to 20	Fc1ccccc1Cn1nc(-c2ncccn2)cc1-c1ccc(Cl)s1 [Compound I-91]
–	–	–	–	–	–	–	–	C (C = 5 to <10 fold increase)	B (B = 2 to <5 fold increase)	60 to 80	0 to 10	Cl.Nc1cnc(-c2cc(-c3ccon3)n(Cc3ccccc3F)n2)nc1N [Compound I-107, 2-(1-(2-fluorobenzyl)-5-(isoxazol-3-yl)-1H-pyrazol-3-yl)pyrimidine-4,5-diamine hydrochloride]
–	–	–	–	–	–	–	–	C (C = 5 to <10 fold increase)	A (A = no increase to <2 fold increase)	20 to 40	40 to 60	Nc1nc(-c2cc(-c3ccon3)n(Cc3ccccc3F)n2)ncc1C(F)(F)F [Compound I-113]

Second part, the compound before the results:

SMILES	sGC Enzyme (fold increase at 10 μM with SNP) ([1]; with 1 μM SNP)	sGC Enzyme (fold increase at 30 μM with SNP) ([1]; with 1 μM SNP)	sGC Enzyme (fold increase at 10 μM without SNP) [2]	sGC Enzyme (fold increase at 30 μM without SNP) [2]	Emax at 10 µM [3, 4] [%]	Emax at 30 µM [3, 5] [%]	sGC Enzyme (specific activity at 10 μM) [2]	sGC Enzyme (specific activity at 30 μM) [2]	sGC Enzyme (fold increase at 30 μM with SNP) ([1]; with the addition of SNP)	sGC Enzyme (fold increase at 30 μM) [2]	Emax at 10 µM [3, 6] [%]	Emax at 30 µM [3, 7] [%]
Cc1cc(-c2ccccn2)nn1Cc1ccccc1F [Compound I-55]	B (B = 2 to <5 fold increase)	B (B = 2 to <5 fold increase)	A (A = no increase to <2 fold increase)	B (B = 2 to <5 fold increase)	10 to 20	20 to 40	–	–	–	–	–	–
N#Cc1c(-c2ccccn2)nn(Cc2ccccc2F)c1-c1ccccn1 [Compound I-54, 1-(2-fluorobenzyl)-3,5-di(pyridin-2-yl)-1H-pyrazole-4-carbonitrile]	A (A = no increase to <2 fold increase)	A (A = no increase to <2 fold increase)	A (A = no increase to <2 fold increase)	A (A = no increase to <2 fold increase)	0 to 10	0 to 10	–	–	–	–	–	–
Cc1ccc(-c2c(Br)c(-c3ncccn3)nn2Cc2ccccc2F)cc1 [Compound I-58]	B (B = 2 to <5 fold increase)	B (B = 2 to <5 fold increase)	A (A = no increase to <2 fold increase)	B (B = 2 to <5 fold increase)	0 to 10	0 to 10	B (B = 50 to <100)	B (B = 50 to <100)	–	–	–	–
Fc1ccccc1Cn1nc(-c2ccccn2)cc1-c1ccc(Br)cn1 [Compound I-51, 5-bromo-2-(1-(2-fluorobenzyl)-3-(pyridin-2-yl)-1H-pyrazol-5-yl)pyridine]	A (A = no increase to <2 fold increase)	A (A = no increase to <2 fold increase)	A (A = no increase to <2 fold increase)	A (A = no increase to <2 fold increase)	0 to 10	0 to 10	–	–	–	–	–	–
Fc1ccccc1Cn1nc(-c2ccc(Br)cn2)cc1-c1ccccn1 [Compound I-52, 5-bromo-2-(1-(2-fluorobenzyl)-5-(pyridin-2-yl)-1H-pyrazol-3-yl)pyridine]	A (A = no increase to <2 fold increase)	A (A = no increase to <2 fold increase)	A (A = no increase to <2 fold increase)	A (A = no increase to <2 fold increase)	0 to 10	0 to 10	–	–	–	–	–	–
Fc1ccccc1Cn1nc(-c2ccccn2)cc1-c1nnn[nH]1 [Compound I-43]	A (A = no increase to <2 fold increase)	A (A = no increase to <2 fold increase)	A (A = no increase to <2 fold increase)	A (A = no increase to <2 fold increase)	0 to 10	0 to 10	C (C = 100 to <200)	C (C = 100 to <200)	–	–	–	–
Fc1ccccc1Cn1nc(-c2ccccn2)c(Br)c1-c1ccccn1 [Compound I-62]	A (A = no increase to <2 fold increase)	A (A = no increase to <2 fold increase)	A (A = no increase to <2 fold increase)	A (A = no increase to <2 fold increase)	0 to 10	0 to 10	B (B = 50 to <100)	B (B = 50 to <100)	–	–	–	–
Cc1ccc(-c2cc(-c3ccccn3)n(Cc3ccccc3F)n2)nc1 [Compound I-57]	A (A = no increase to <2 fold increase)	B (B = 2 to <5 fold increase)	A (A = no increase to <2 fold increase)	A (A = no increase to <2 fold increase)	0 to 10	0 to 10	B (B = 50 to <100)	B (B = 50 to <100)	–	–	–	–
COc1cccc(-c2cc(-c3ccccn3)nn2Cc2ccccc2F)n1 [Compound I-25, 2-(1-(2-fluorobenzyl)-3-(pyridin-2-yl)-1H-pyrazol-5-yl)-6-methoxypyridine]	B (B = 2 to <5 fold increase)	C (C = 5 to <10 fold increase)	A (A = no increase to <2 fold increase)	A (A = no increase to <2 fold increase)	0 to 10	10 to 20	C (C = 100 to <200)	D (D = 200 to <500)	–	–	–	–
COc1ccc(-c2cc(-c3ccccn3)nn2Cc2ccccc2F)cc1 [Compound I-40]	A (A = no increase to <2 fold increase)	B (B = 2 to <5 fold increase)	A (A = no increase to <2 fold increase)	A (A = no increase to <2 fold increase)	0 to 10	0 to 10	C (C = 100 to <200)	C (C = 100 to <200)	–	–	–	–
Fc1ccccc1Cn1nc(-c2ncccn2)cc1-c1ccccc1F [Compound I-59]	B (B = 2 to <5 fold increase)	C (C = 5 to <10 fold increase)	B (B = 2 to <5 fold increase)	B (B = 2 to <5 fold increase)	0 to 10	0 to 10	B (B = 50 to <100)	C (C = 100 to <200)	–	–	–	–
Cc1ccc(-c2cc(-c3ncccn3)nn2Cc2ccccc2F)cc1 [Compound I-65]	B (B = 2 to <5 fold increase)	C (C = 5 to <10 fold increase)	B (B = 2 to <5 fold increase)	B (B = 2 to <5 fold increase)	0 to 10	0 to 10	B (B = 50 to <100)	C (C = 100 to <200)	–	–	–	–
